Biological target: T1, IRAK4 (Homo sapiens, UniProt Q9NWZ3)
T1 sequence (Q9NWZ3 1-460): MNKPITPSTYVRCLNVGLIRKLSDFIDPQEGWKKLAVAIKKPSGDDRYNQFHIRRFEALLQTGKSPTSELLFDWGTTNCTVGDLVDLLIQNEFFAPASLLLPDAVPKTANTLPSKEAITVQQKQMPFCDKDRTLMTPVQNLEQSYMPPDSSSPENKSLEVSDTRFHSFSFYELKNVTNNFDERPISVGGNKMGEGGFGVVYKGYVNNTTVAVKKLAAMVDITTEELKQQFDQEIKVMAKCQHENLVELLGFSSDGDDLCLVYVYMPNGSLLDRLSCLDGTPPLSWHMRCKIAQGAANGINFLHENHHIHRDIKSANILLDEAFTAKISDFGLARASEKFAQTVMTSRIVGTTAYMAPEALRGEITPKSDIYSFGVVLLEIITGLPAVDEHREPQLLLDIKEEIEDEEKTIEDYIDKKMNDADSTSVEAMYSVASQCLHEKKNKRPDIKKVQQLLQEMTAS
Assay: OCI-LY-10 degradation assay (western blot, % IRAK4 degraded after 4 hours)
Type: cell-based
Design: endogenous in cells; host or cells: OCI-LY10
Details: OCI-LY10 cells, 4 hours; for OCI-LY10 % IRAK4 Degradation (0.01 uM): 0.01 uM compound; for OCI-LY10 % IRAK4 Degradation (0.1 uM): 0.1 uM compound; for OCI-LY10 % IRAK4 Degradation (1 uM): 1 uM compound
In short: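 OCI-LY10 cells (RPMI-1640, 20% FBS, 55 μM 2-ME) treated with compound at 0.003-10 μM final for 4 h at 37° C, then lysed in RIPA buffer. IRAK4 level read by fluorescent western blot (20-25 μg protein) and binned as % degraded: A >50%, B >20-50%, C <20%.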

SMILES | OCI-LY10 % IRAK4 Degradation (0.01 uM) | OCI-LY10 % IRAK4 Degradation (0.1 uM) | OCI-LY10 % IRAK4 Degradation (1 uM)
NC(=O)c1nn(-c2ccc(C(=O)NCCOCCCc3cccc4c3C(=O)N(C3CCC(=O)NC3=O)C4=O)cc2)cc1NC(=O)c1coc(-c2ccnc(NCC(F)(F)F)c2)n1 (stereo not drawn) [I-234] | C (<20% degradation) | B (>20-50% degradation) | B (>20-50% degradation)
NC(=O)c1nn(-c2ccc(C(=O)NCCOCCOCCOCCOCC#Cc3cccc4c3C(=O)N(C3CCC(=O)NC3=O)C4=O)cc2)cc1NC(=O)c1coc(-c2ccnc(NCC(F)(F)F)c2)n1 (stereo not drawn) [I-236] | C (<20% degradation) | B (>20-50% degradation) | A (>50% degradation)
NC(=O)c1nn(-c2ccc(C(=O)NCCOCCOCCOCCCc3cccc4c3CN(C3CCC(=O)NC3=O)C4=O)cc2)cc1NC(=O)c1coc(-c2ccnc(NCC3CC3)c2)n1 (stereo not drawn) [I-238] | C (<20% degradation) | B (>20-50% degradation) | A (>50% degradation)
NC(=O)c1nn(CCOCCOCCOCCNc2cccc3c2C(=O)N(C2CCC(=O)NC2=O)C3=O)cc1NC(=O)c1coc(-c2ccnc(NCC3CC3)c2)n1 (stereo not drawn) [I-239] | C (<20% degradation) | C (<20% degradation) | C (<20% degradation)
O=C1CCC(N2C(=O)c3cccc(CCCOCCOCCNC(=O)c4ccc(-n5cc(NC(=O)c6coc(-c7ccnc(NCC8CC8)c7)n6)c(C(F)F)n5)cc4)c3C2=O)C(=O)N1 (stereo not drawn) [I-244] | C (<20% degradation) | B (>20-50% degradation) | B (>20-50% degradation)
O=C1CCC(N2C(=O)c3cccc(NCCCCCNCCNC(=O)c4ccc(-n5cc(NC(=O)c6coc(-c7ccnc(NCC8CC8)c7)n6)c(C(F)F)n5)cc4)c3C2=O)C(=O)N1 (stereo not drawn) [I-245] | C (<20% degradation) | B (>20-50% degradation) | A (>50% degradation)
O=C1CCC(N2C(=O)c3cccc(NCCOCCOCCNC(=O)c4ccc(-n5cc(NC(=O)c6coc(-c7ccnc(NCC8CC8)c7)n6)c(C(F)F)n5)cc4)c3C2=O)C(=O)N1 (stereo not drawn) [I-246] | C (<20% degradation) | A (>50% degradation) | A (>50% degradation)
O=C1CCC(N2C(=O)c3cccc(NCCOCCN4CCO[C@@H](CNC(=O)c5ccc(-n6cc(NC(=O)c7coc(-c8ccnc(NCC9CC9)c8)n7)c(C(F)F)n6)cc5)C4)c3C2=O)C(=O)N1 (stereo partly drawn) [I-247] | B (>20-50% degradation) | A (>50% degradation) | A (>50% degradation)
O=C1CCC(N2C(=O)c3cccc(NCCOCCN4CCO[C@H](CNC(=O)c5ccc(-n6cc(NC(=O)c7coc(-c8ccnc(NCC9CC9)c8)n7)c(C(F)F)n6)cc5)C4)c3C2=O)C(=O)N1 (stereo partly drawn) [I-250] | C (<20% degradation) | A (>50% degradation) | A (>50% degradation)
O=C1CCC(n2c(=O)oc3c(CCCOCCOCCNC(=O)c4ccc(-n5cc(NC(=O)c6coc(-c7ccnc(NCC(F)(F)F)c7)n6)c(C(F)F)n5)cc4)cccc32)C(=O)N1 (stereo not drawn) [I-256] | B (>20-50% degradation) | A (>50% degradation) | A (>50% degradation)
O=C1CCC(N2C(=O)c3cccc(CCCN4CCC(n5cc(NC(=O)c6coc(-c7ccnc(NCC8CC8)c7)n6)c(C(F)F)n5)CC4)c3C2=O)C(=O)N1 (stereo not drawn) [I-259] | C (<20% degradation) | C (<20% degradation) | C (<20% degradation)
O=C1CCC(N2C(=O)c3ccc(CCCNC(=O)c4ccc(-n5cc(NC(=O)c6coc(-c7ccncc7)n6)c(C(F)F)n5)cc4)cc3C2=O)C(=O)N1 (stereo not drawn) [I-260] | C (<20% degradation) | C (<20% degradation) | C (<20% degradation)
O=C1CCC(N2C(=O)c3ccc(CCCCCN4CCC(n5cc(NC(=O)c6coc(-c7ccnc(NCC8CC8)c7)n6)c(C(F)F)n5)CC4)cc3C2=O)C(=O)N1 (stereo not drawn) [I-263] | C (<20% degradation) | C (<20% degradation) | C (<20% degradation)
O=C1CCC(N2C(=O)c3cccc(N4CCN(CCOCCOCCOCCNC(=O)c5ccc(-n6cc(NC(=O)c7coc(-c8ccnc(NCC9CC9)c8)n7)c(C(F)F)n6)cc5)CC4)c3C2=O)C(=O)N1 (stereo not drawn) [I-275] | C (<20% degradation) | B (>20-50% degradation) | A (>50% degradation)
O=C1CCC(N2C(=O)c3cccc(NCCOCCN4CCO[C@@H](CNC(=O)c5ccc(-n6cc(NC(=O)c7coc(-c8ccnc(NCC(F)(F)F)c8)n7)c(C(F)F)n6)cc5)C4)c3C2=O)C(=O)N1 (stereo partly drawn) [I-282] | C (<20% degradation) | C (<20% degradation) | C (<20% degradation)

Next, values leading:

OCI-LY10 % IRAK4 Degradation (0.01 uM) | OCI-LY10 % IRAK4 Degradation (0.1 uM) | OCI-LY10 % IRAK4 Degradation (1 uM) | SMILES
C (<20% degradation) | A (>50% degradation) | A (>50% degradation) | NC(=O)c1nn(-c2ccc(C(=O)NCCOCCOCCCc3cccc4c3C(=O)N(C3CCC(=O)NC3=O)C4=O)cc2)cc1NC(=O)c1coc(-c2ccnc(NCC(F)(F)F)c2)n1 (stereo not drawn) [I-233]
C (<20% degradation) | C (<20% degradation) | C (<20% degradation) | O=C1CCC(N2C(=O)c3cccc(CCCOCCNC(=O)c4ccc(-n5cc(NC(=O)c6coc(-c7ccnc(NCC8CC8)c7)n6)c(C(F)F)n5)cc4)c3C2=O)C(=O)N1 (stereo not drawn) [I-243]
B (>20-50% degradation) | A (>50% degradation) | A (>50% degradation) | Cn1c(=O)n(C2CCC(=O)NC2=O)c2ccc(CCCOCCOCCNC(=O)c3ccc(-n4cc(NC(=O)c5coc(-c6ccnc(NCC(F)(F)F)c6)n5)c(C(N)=O)n4)cc3)cc21 (stereo not drawn) [I-248]
C (<20% degradation) | A (>50% degradation) | A (>50% degradation) | Cn1c(=O)n(C2CCC(=O)NC2=O)c2cccc(CCCOCCOCCNC(=O)c3ccc(-n4cc(NC(=O)c5coc(-c6ccnc(NCC(F)(F)F)c6)n5)c(C(N)=O)n4)cc3)c21 (stereo not drawn) [I-249]
C (<20% degradation) | C (<20% degradation) | B (>20-50% degradation) | O=C1CCC(N2C(=O)c3cccc(NCCOCCOCCOCCOCCn4cc(NC(=O)c5coc(-c6ccnc(NCC7CC7)c6)n5)c(C(F)F)n4)c3C2=O)C(=O)N1 (stereo not drawn) [I-254]
C (<20% degradation) | C (<20% degradation) | C (<20% degradation) | O=C1CCC(N2C(=O)c3cccc(CCOCCN4CCC(n5cc(NC(=O)c6coc(-c7ccnc(NCC8CC8)c7)n6)c(C(F)F)n5)CC4)c3C2=O)C(=O)N1 (stereo not drawn) [I-257]
C (<20% degradation) | C (<20% degradation) | C (<20% degradation) | O=C1CCC(N2C(=O)c3ccc(CCCN4CCC(n5cc(NC(=O)c6coc(-c7ccnc(NCC8CC8)c7)n6)c(C(F)F)n5)CC4)cc3C2=O)C(=O)N1 (stereo not drawn) [I-264]
C (<20% degradation) | C (<20% degradation) | B (>20-50% degradation) | CC(=O)O[C@@H]1C[C@@H](C(=O)NCc2ccc(-n3cc(NC(=O)c4coc(-c5ccnc(NCC6CC6)c5)n4)c(C(F)F)n3)cc2)N(C(=O)[C@@H](NC(=O)COCCOCCOCCNc2cccc3c2C(=O)N(C2CCC(=O)NC2=O)C3=O)C(C)(C)C)C1 (stereo partly drawn) [I-285]
B (>20-50% degradation) | A (>50% degradation) | A (>50% degradation) | NC(=O)c1nn(-c2ccc(COCC3CCCCN3CCOCCNc3cccc4c3C(=O)N(C3CCC(=O)NC3=O)C4=O)cc2)cc1NC(=O)c1coc(-c2ccnc(NCC(F)(F)F)c2)n1 (stereo not drawn) [I-303, N-[3-carbamoyl-1-[4-[[1-[2-[2-[[2-(2,6-dioxo-3-piperidyl)-1,3-dioxo-isoindolin-4-yl]amino]ethoxy]ethyl]-2-piperidyl]methoxymethyl]phenyl]pyrazol-4-yl]-2-[2-(2,2,2-trifluoroethylamino)-4-pyridyl]oxazole-4-carboxamide]

From patent US10874743B2, “IRAK degraders and uses thereof” (Kymera Therapeutics, Inc., priority 2017, dated 2020)
